Results on 77 compounds are retold here after patent US7737155B2, “Nitrogen-containing heterocyclic compounds and methods of use thereof” (Schering Corporation, priority 2005, dated 2010).

Sequence of recombinant human nicotinic acid receptor (NAR) (Q8TDS4 whole entry): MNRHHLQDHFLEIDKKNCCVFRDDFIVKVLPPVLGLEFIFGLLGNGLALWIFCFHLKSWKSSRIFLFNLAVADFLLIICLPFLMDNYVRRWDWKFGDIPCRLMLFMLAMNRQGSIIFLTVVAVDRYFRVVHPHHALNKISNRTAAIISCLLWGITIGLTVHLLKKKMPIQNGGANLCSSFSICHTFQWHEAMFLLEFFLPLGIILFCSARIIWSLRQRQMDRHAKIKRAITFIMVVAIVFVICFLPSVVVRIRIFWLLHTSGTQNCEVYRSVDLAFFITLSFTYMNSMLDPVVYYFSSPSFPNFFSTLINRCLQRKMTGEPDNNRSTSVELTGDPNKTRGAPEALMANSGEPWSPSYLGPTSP

The target in the first assay is recombinant human nicotinic acid receptor (NAR) (Homo sapiens, UniProt Q8TDS4). In words: Nicotinic Acid Receptor Assay: inhibition of forskolin-stimulated cAMP accumulation in CHO cells (MesoScale Discovery cAMP kit). The format is cell-based. The settings on record: CHO cells expressing recombinant human NAR; forskolin-stimulated cAMP; read-out: NA EC50 camp. The method, boiled down:
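Compounds were diluted in PBS containing 6 μM forskolin and incubated with cells for 30 min at room temperature. cAMP was quantified by the MesoScale kit against an on-plate standard curve.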
A general note: cAMP levels reflect the balance of adenylyl cyclase and phosphodiesterase activity.
Regarding `CCCCc1c(-c2ccc(C(F)(F)F)cc2)c(=O)oc2[nH]c(=O)[nH]c(=O)c12` [Compound 708], the EC50 (commonly the concentration giving half of the maximal effect) was 100 to 1000 nM.
Turning to `CCc1cc(=O)oc2nc(OC(C)c3ccccc3C(F)(F)F)[nH]c(=O)c12` (stereo not shown) [Compound 508], the EC50 was over 1000 nM.
Same read-out and setting: under `CCc1cc(=O)oc2nc(OCc3ccc4ccccc4n3)[nH]c(=O)c12` [Compound 527] stands 100 to 1000 nM; under `CCC(CC)Cc1cc(=O)oc2[nH]c(=O)[nH]c(=O)c12` [Compound 267], over 1000 nM.
As for `O=c1[nH]c(=O)c2c(CC3Cc4ccccc4C3)cc(=O)oc2[nH]1` [Compound 202], the EC50 lay in the range of 100 to 1000 nM.
On the same count and under the same terms, under `CCc1cc(=O)oc2nc(OCCSc3ccc(Cl)cc3)[nH]c(=O)c12` [Compound 587] stands over 1000 nM.
Take `CCc1cc(=O)oc2nc(OCCS(C)(=O)=O)[nH]c(=O)c12` [Compound 588]: the EC50 was over 1000 nM.
Still for that read-out and setting: under `CCc1cc(=O)oc2nc(OCc3ccc(-c4ccccc4)cc3)[nH]c(=O)c12` [Compound 517] stands over 1000 nM.
The same measure, in the same setting: under `CCc1cc(=O)oc2nc(OCc3cccc(-c4ccc(OC)nc4)c3)[nH]c(=O)c12` [Compound 562] stands 100 to 1000 nM; under `O=c1[nH]c(=O)c2c(CCCc3cn(Cc4ccccc4)nn3)cc(=O)oc2[nH]1` [Compound 251], 100 to 1000 nM.
Still for that read-out and setting: under `CCc1cc(=O)oc2nc(OCC#CC(CC)OC)[nH]c(=O)c12` (stereo not shown) [Compound 669] stands 100 to 1000 nM; under `O=c1cc(CCCc2cccs2)c2c(=O)n(CC3CC3)c(=O)[nH]c2o1` [Compound 256], over 1000 nM.
`CCC(CC)CCc1cc(=O)oc2[nH]c(=O)[nH]c(=O)c12` [Compound 269]: the EC50 lay in the range of 100 to 1000 nM.
Same read-out and setting: under `CCc1cc(=O)oc2nc(OCCS(=O)(=O)c3ccc(Cl)cc3)[nH]c(=O)c12` [Compound 591] stands 0.001 to 100 nM; under `CCc1cc(=O)oc2nc(OCc3ccccc3-c3cccc(C(N)=O)c3)[nH]c(=O)c12` [Compound 585], 100 to 1000 nM.
For the compound `CCc1cc(=O)oc2nc(OCc3ccccc3-c3cccc(CO)c3)[nH]c(=O)c12` [Compound 634], the EC50 is 100 to 1000 nM.
On the same count and under the same terms, under `CCc1cc(=O)oc2nc(OCc3cccc(-c4cccc5cccnc45)c3)[nH]c(=O)c12` [Compound 560] stands over 1000 nM; under `O=C(NCCCc1cc(=O)oc2[nH]c(=O)[nH]c(=O)c12)OCc1ccccc1` [Compound 228], over 1000 nM; under `O=c1cc(CCCc2cccs2)c2c(=O)[nH]c(=O)n(CC3CC3)c2o1` [Compound 255], over 1000 nM.
As for `CCc1cc(=O)oc2nc(OCCOc3c(OC)cccc3OC)[nH]c(=O)c12` [Compound 622], the EC50 lay in the range of 100 to 1000 nM.
Regarding `CCc1cc(=O)oc2nc(OCc3snnc3-c3ccccc3)[nH]c(=O)c12` [Compound 532], the EC50 was in the range of 100 to 1000 nM.
Take `O=C(OCc1ccccc1)N1CCC(Cc2cc(=O)oc3[nH]c(=O)[nH]c(=O)c23)C1` (stereo not shown) [Compound 233]: the EC50 was over 1000 nM.
Still for that read-out and setting: under `CCc1cc(=O)oc2nc(OCc3cc(C)nn3C(C)(C)C)[nH]c(=O)c12` [Compound 673] stands 100 to 1000 nM.
On the same count and under the same terms, under `O=c1[nH]c(=O)c2c(CCCC3CCCC3)cc(=O)oc2[nH]1` [Compound 297] stands 0.001 to 100 nM.
The same measure, in the same setting: under `CC(Cc1cc(=O)oc2[nH]c(=O)[nH]c(=O)c12)CC(C)(C)C` (stereo not shown) [Compound 248] stands over 1000 nM.
For the compound `CCc1cc(=O)oc2nc(OCc3ccc4c(c3)nnn4C)[nH]c(=O)c12` [Compound 543], the EC50 lay in the range of 100 to 1000 nM.
Same read-out and setting: under `CCc1noc(C)c1COc1nc2oc(=O)cc(Cc3cccc(F)c3)c2c(=O)[nH]1` [Compound 685] stands 100 to 1000 nM; under `CCc1cc(=O)oc2nc(OCc3ccccc3-c3ccc(F)cc3)[nH]c(=O)c12` [Compound 510], over 1000 nM; under `CCc1cc(=O)oc2nc(OCc3ncccc3C)[nH]c(=O)c12` [Compound 556], over 1000 nM.
With `CCc1cc(=O)oc2nc(OCCN(C)C)[nH]c(=O)c12` [Compound 652], the EC50 lay within 0.001 to 100 nM.
Regarding `CCc1cc(=O)oc2nc(OCc3ccc(C)c(C(F)(F)F)c3)[nH]c(=O)c12` [Compound 516], the EC50 was over 1000 nM.
For `CCOc1ccc(-c2c(CCC3CCC3)c3c(=O)[nH]c(=O)[nH]c3oc2=O)cc1` [Compound 703], the EC50 is over 1000 nM.
As to `CCc1cc(=O)oc2nc(OCc3cccc(-c4ccc(F)c(Cl)c4)c3)[nH]c(=O)c12` [Compound 558], the EC50 is over 1000 nM.
Still for that read-out and setting: under `O=c1cc(CCc2cccs2)c2c(=O)n(C3CCC3)c(=O)[nH]c2o1` [Compound 282] stands 100 to 1000 nM; under `CCc1cc(=O)oc2nc(OCc3cc(C)ccc3C)[nH]c(=O)c12` [Compound 539], 100 to 1000 nM; under `COC(=O)CCc1cc(=O)oc2[nH]c(=O)[nH]c(=O)c12` [Compound 216], 100 to 1000 nM.
Still for that read-out and setting: under `CCc1cc(=O)oc2nc(OCCO)[nH]c(=O)c12` [Compound 643] stands 100 to 1000 nM; under `CCc1cc(=O)oc2nc(OCC#Cc3ccccc3Cl)[nH]c(=O)c12` [Compound 623], 0.001 to 100 nM; under `O=c1cc(CCC2CC2)c2c(=O)[nH]c(=O)n(C3CCC3)c2o1` [Compound 274], 100 to 1000 nM.
Still for that read-out and setting: under `C#CCCCCc1cc(=O)oc2[nH]c(=O)[nH]c(=O)c12` [Compound 226] stands 0.001 to 100 nM.
As to `CCc1cc(=O)oc2nc(OCC3CCCCN3C)[nH]c(=O)c12` (stereo not shown) [Compound 594], the EC50 was over 1000 nM.
The same measure, in the same setting: under `O=c1[nH]c(=O)c2c(CCCc3cc(-c4cccc(C(F)(F)F)c4)no3)cc(=O)oc2[nH]1` [Compound 249] stands 100 to 1000 nM; under `CCc1cc(=O)oc2nc(OCC#CC(O)CC)[nH]c(=O)c12` (stereo not shown) [Compound 671], 0.001 to 100 nM.
Still for that read-out and setting: under `O=c1[nH]c(=O)c2c(CCC#Cc3ccccc3)cc(=O)oc2[nH]1` [Compound 220] stands over 1000 nM; under `CCCCCCc1cc(=O)oc2nc(ONC(=O)OCC)[nH]c(=O)c12` [Compound 692], 0.001 to 100 nM; under `O=c1[nH]c(=O)c2c(CC3CCNC3)cc(=O)oc2[nH]1` (stereo not shown) [Compound 244], over 1000 nM.
The same measure, in the same setting: under `CCc1cc(=O)oc2nc(OCc3c(-c4ccccc4)noc3C)[nH]c(=O)c12` [Compound 526] stands 100 to 1000 nM; under `CCc1cc(=O)oc2nc(OCC(N)=O)[nH]c(=O)c12` [Compound 582], 100 to 1000 nM; under `CCOC(=O)c1cccc(-c2ccccc2COc2nc3oc(=O)cc(CC)c3c(=O)[nH]2)c1` [Compound 547], 100 to 1000 nM.
On to `CCc1cc(=O)oc2nc(OCc3cc(Cl)ccc3OC)[nH]c(=O)c12` [Compound 507], for which the concentration giving a half-maximal response (EC50) lay within 0.001 to 100 nM.
The same measure, in the same setting: under `O=c1[nH]c(=O)c2c(CC3CCC(F)(F)CC3)cc(=O)oc2[nH]1` [Compound 223] stands 0.001 to 100 nM.
`CC(C)(C)CCc1cc(=O)oc2[nH]c(=O)[nH]c(=O)c12` [Compound 263]: the EC50 was over 1000 nM.
The same measure, in the same setting: under `Cn1c(=O)[nH]c2oc(=O)cc(CCC3CC3)c2c1=O` [Compound 276] stands 100 to 1000 nM; under `CCCCc1cc(=O)oc2nc(OCc3ccccn3)[nH]c(=O)c12` [Compound 682], over 1000 nM; under `CCc1cc(=O)oc2nc(OCCOc3cccc(C)c3)[nH]c(=O)c12` [Compound 598], 100 to 1000 nM.
Still for that read-out and setting: under `CCOC(=O)NOc1nc2oc(=O)cc(CCC3CCCC3)c2c(=O)[nH]1` [Compound 693] stands 100 to 1000 nM; under `O=c1[nH]c(=O)c2c(CCCOCc3ccccc3)cc(=O)oc2[nH]1` [Compound 264], over 1000 nM.
The same measure, in the same setting: under `CCc1cc(=O)oc2nc(OCc3ccc(C)cc3C)[nH]c(=O)c12` [Compound 504] stands 100 to 1000 nM; under `CCc1cc(=O)oc2nc(OCc3cnoc3C)[nH]c(=O)c12` [Compound 668], over 1000 nM.

Still in this assay, the particulars now being: NA EC50 camp (nM), CHO cells expressing recombinant human NAR; forskolin-stimulated cAMP.
On to `CCc1cc(=O)oc2nc(OCCOC)[nH]c(=O)c12` [Compound 524], for which the EC50 fell in the range of 100 to 1000 nM.
As for `CC#CCCOc1nc2oc(=O)cc(CC)c2c(=O)[nH]1` [Compound 590], the 50% effective concentration (EC50) is 100 to 1000 nM.

Staying with this assay, now noted: NA EC50 camp, inhibition of forskolin-stimulated cAMP accumulation, CHO cells expressing recombinant human NAR.
`CCCCc1cc(=O)oc2nc(C(F)F)[nH]c(=O)c12` [Compound 750]: the EC50 turned out to be 1890 nM.

The same assay, now with this note: inhibition of forskolin-stimulated cAMP accumulation, CHO cells expressing recombinant human NAR; read-out: NA EC50 camp.
Regarding `CCCCc1cc(=O)oc2[nH]c(=O)n(CC(F)F)c(=O)c12` [Compound 821], the EC50 was determined as 142 nM.
Still for that read-out and setting: under `CCC#CCOc1nc2oc(=O)cc(CCCC(C)C)c2c(=O)[nH]1` [Compound 715] stands 671 nM.
For `CCc1cc(=O)oc2nc(OCC#CCCOC)[nH]c(=O)c12` [Compound 726], the EC50 was 219 nM.
On the same count and under the same terms, under `CCCCc1cc(=O)oc2nc(OCC#CC(C)O)[nH]c(=O)c12` (stereo not shown) [Compound 737] stands 59.5 nM; under `CCCCc1cc(=O)oc2nc(OCC#CC(O)CC)[nH]c(=O)c12` (stereo not shown) [Compound 736], 32.9 nM; under `CCn1c(=O)[nH]c2oc(=O)cc(CCCC3CC3)c2c1=O` [Compound 782], 94 nM.
For the compound `O=c1[nH]c(=O)c2c(CCCC3CCCC3)cc(=O)oc2[nH]1` [Compound 297], the EC50 came to 56.7 nM.
Consider `CCCCc1cc(=O)oc2c1c(=O)[nH]c(=O)n2OCc1ccccc1` [Compound 798], for which the EC50 was over 10000 nM.
Regarding `CCc1cc(=O)n(C)c2[nH]c(=O)[nH]c(=O)c12` [Compound 808], the EC50 was over 10000 nM.
Same read-out and setting: under `CSCCCc1cc(=O)oc2nc(CF)[nH]c(=O)c12` [Compound 751] stands 487 nM; under `O=c1[nH]c(=O)c2c(CC3CCC(F)(F)CC3)cc(=O)oc2[nH]1` [Compound 223], 26.5 nM; under `O=c1cc(CCC2CCC2)c2c(=O)[nH]c(CF)nc2o1` [Compound 749], 182 nM.
Still for that read-out and setting: under `CCC#CC(C)Oc1nc2oc(=O)cc(CC)c2c(=O)[nH]1` (stereo not shown) [Compound 730] stands 156 nM; under `O=c1cc(CCCC2CC2)c2c(=O)[nH]c(CF)nc2o1` [Compound 741], 123 nM.
The same measure, in the same setting: under `O=c1cc(CCC2CC2)c2c(=O)[nH]c(CF)nc2o1` [Compound 753] stands 228 nM.
With `CCCCc1cc(=O)oc2c1c(=O)[nH]c(=O)n2CF` [Compound 813], the EC50 came out at 256 nM.
Still for that read-out and setting: under `CCC#CC(C)Oc1nc2oc(=O)cc(CCCC3CC3)c2c(=O)[nH]1` (stereo not shown) [Compound 718] stands 162 nM.
